Test results: patent US20190127707A1, “MEDIUM FOR CULTURING NAIVE PLURIPOTENT STEM CELLS AND METHOD FOR CULTURING PLURIPOTENT STEM CELLS” (KYOWA HAKKO BIO CO., LTD., priority 2016, published 2019)

Assays:
Tic-FX cells [1] = test: Culturing of iPS cells in the presence of low molecular weight compounds (cell count); assay type: cell-based, human; conditions: 40 ng/mL FGF2, five days
Experimental: Media were produced by adding 1 μM of Y-27632, 20 ng/mL of LIF and 40 ng/mL of FGF2 to the basal medium, and media were produced by adding the following inhibitors to the media at concentrations of 1 μM (PD0325901), 0.3 μM (CHIR99021), 0.5 μM (SB590885), 1 μM (WH-4-023), 10 μM (SP600125), 10 μM (SB203580), 5 μM (Go6983), 5 μM (GF109203X), 2 μM (Porsomorphin) or 400 ng/mL (Noggin) each. The Tic-FX cells were proliferated in suspension culture in ultra-low attachment 6-well plates (manufactured by Coming Incorporated) containing the media in the presence of 10% CO2 at 37° C. The cells were cultured for five days, and the cells were counted. In FIG. 6, “−” indicates the results using the medium to which no inhibitor was added.

Tic-FX cells [2] = test: Real-time PCR of pluripotency markers in cells proliferated with inhibitors; assay type: cell-based, human; conditions: 40 ng/mL FGF2, versus control Tic-FX
Source text: Cells cultured in the basal medium were used as the control (indicated by Tic-FX in FIG. 7A and FIG. 7B).

human iPS cells = conditions: added to the medium; cells dispersed into single cells or clusters of several to several dozen cells; cited from earlier work
Tic-FX cells [3] = test: Influence on proliferation of iPS cells in the presence of ROCK inhibitor (suspension culture); assay type: cell-based, human; conditions: Y-27632 at 1 μM, 3 μM or 10 μM in hESF-FX medium
Experimental: In the following Examples, a medium obtained by mixing the following components in the amounts shown in Table 1 which had been sterilized with a […] into mESF Basal Medium (manufactured by Wako Pure Chemical Industries, Ltd., 136-17805) was used as hESF-FX medium. As the iPS cells, Tic-FX cells [a cell line obtained by conditioning iPS cells, line Tic (JCRB1331) to a feeder-free xeno-free culture (FX)] were used. A ROCK inhibitor (Y-27632) was dissolved in the hESF-FX medium at 1 μM, 3 μM or 10μM. The media each in an amount of 3 mL were put into an ultra-low attachment 6-well plate (manufactured by Corning Incorporated), and the Tic-FX cells were cultured in the presence of 10% CO2 at 37° C. (suspension culture). The plate was observed after one day, three days and five days of cultivation. […] The numbers of the cells per well and the viability of the cells were measured after five days of cultivation.

Tic-FX cells [4] = test: Real-time PCR of undifferentiation, naive type-specific and differentiation marker genes in cells of Example 1; assay type: cell-based, human; conditions: five days, relative to GAPDH; for expression level of NCAM / expression level of naive type-specific STELLA gene: versus control; for expression level of NANOG / expression level of OCT3/4: versus control Tic-FX
Experimental: The expression of marker genes was examined by real-time PCR. Real-time PCR was conducted using a real-time PCR system (7300 manufactured by Applied Biosystems) by the following reaction procedures using the following primers. 95° C. 30 seconds→[(95° C. 5 seconds→60° C. 31 seconds)×40 cycles]→Melting Cycle Using the cells cultured in Example 1, the expression levels of NANOG and OCT3/4, which are undifferentiation marker genes, […], which is a naive type-specific marker gene, and NCAM, which is a neuronal differentiation-specific marker gene, in the cells after five days of cultivation were examined by the real-time PCR. In FIG. 3A to FIG. 3D, the vertical axes each indicate the ratio of the expression level of the target gene of the sample to that of GAPDH (glyceraldehyde-3-phosphate dehydrogenase), which was used as the internal standard. Specifically, the values in the graphs each mean the relative value (unit is fold) of the DNA amount before the amplification determined from the difference between the Cp value of GAPDH and the Cp value of the target gene. Here, the internal standard is a gene whose expression level is always constant independently of the state of the cells. The Cp value is the number of cycles which are necessary to amplify DNA to the amount that can be detected with a measurement device when the DNA is amplified by PCR reaction (theoretically, the DNA amount doubles in one cycle).

[5] = 0.3 μM added to medium with 1 μM Y-27632, 20 ng/mL LIF
[6] = 400 ng/mL added to medium with 1 μM Y-27632, 20 ng/mL LIF

Cc1c[nH]c(-c2cnc(NCCNc3ccc(C#N)cn3)nc2-c2ccc(Cl)cc2Cl)n1 [CHIR99021, 6-{2-[4-(2,4-dichloro-phenyl)-5-(4-methyl-1H-imidazol-2-yl)-pyrimidin-2-ylamino]-ethylamino}-nicotinonitrile]
growth rate of the cells (Tic-FX cells [1]; [5]): high
expression level of NANOG (Tic-FX cells [2]; [5]): increased
expression level of OCT3/4 (Tic-FX cells [2]; [5]): increased

C[C@@H](N)[C@H]1CC[C@H](C(=O)Nc2ccncc2)CC1.Cl.Cl [Y-27632, (+)-(R)-trans-4-(1-aminoethyl)-N-(4-pyridyl)cyclohexanecarboxamide dihydrochloride]
apoptosis of human iPS cells (human iPS cells): suppresses the apoptosis
intercellular adhesion (human iPS cells): promotes the intercellular adhesion
number of the cells per well (Tic-FX cells [3]; after five days of cultivation): increased as the concentration of the ROCK inhibitor was higher
viability of the cells (Tic-FX cells [3]; after five days of cultivation): increased as the concentration of the ROCK inhibitor was higher
number of the cells (micrographs, FIG. 1A and FIG. 1B) (Tic-FX cells [3]; observed after one, three and five days): increased as the concentration of the ROCK inhibitor was higher
expression level of NCAM (Tic-FX cells [4]; 1 μM): almost the same as that of the control
expression level of naive type-specific STELLA gene (Tic-FX cells [4]; 1 μM): higher than that of the control
expression level of NANOG (Tic-FX cells [4]; 1 μM): higher than those of the control
expression level of OCT3/4 (Tic-FX cells [4]; 1 μM): higher than those of the control
expression level of NCAM (Tic-FX cells [4]; 3 μM): higher than that of the control
expression level of naive type-specific STELLA gene (Tic-FX cells [4]; 3 μM): higher than that of the control
expression level of NANOG (Tic-FX cells [4]; 3 μM): higher than those of the control
expression level of OCT3/4 (Tic-FX cells [4]; 3 μM): higher than those of the control
expression level of NCAM (Tic-FX cells [4]; 10 μM): higher than that of the control
expression level of naive type-specific STELLA gene (Tic-FX cells [4]; 10 μM): slightly higher than that of the control
expression level of NANOG (Tic-FX cells [4]; 10 μM): lower than those of the control
expression level of OCT3/4 (Tic-FX cells [4]; 10 μM): lower than those of the control

B1: Noggin: Noggin, Recombinant Human, manufactured by R&D Systems; endogenous protein that inhibits BMP (protein, UniProt Q13253 28-232, looked up)
Noggin: QHYLHIRPAPSDNLPLVDLIEHPDPIFDPKEKDLNETLLRSLLGGHYDPGFMATSPPEDRPGGGGGAAGGAEDLAELDQLLRQRPSGAMPSEIKGLEFSEGLAQGKKQRLSKKLRRKLQMWLWSQTFCPVLYAWNDLGSRFWPRYVKVGSCFSKRSCSVPEGMVCKPSKSVHLTVLRWRCQRRGGQRCGWIPIQYPIISECKCSC
growth rate of the cells (Tic-FX cells [1]; [6]): high
expression level of NANOG (Tic-FX cells [2]; [6]): increased
expression level of OCT3/4 (Tic-FX cells [2]; [6]): increased
